Laboratory results reported in patent US20160102073A1, “2-HYDROXYMETHYL-SUBSTITUTED OREXIN RECEPTOR ANTAGONISTS” (MERCK SHARP & DOHME CORP., priority 2013, published 2016).
pIC50: −log10 of the molar value.

Assays:
[1] = molecular target: T1, human orexin-2 receptor (hOX2R) (Homo sapiens, UniProt O43614); experiment: FLIPR Ca2+ Flux Assay, CHO cells expressing hOX2R; format: cell-based; settings: agonist 70 pM Ala-6,12 orexin-A
T1 construct: expressed in transfected cells; host or cells: Chinese hamster ovary (CHO) cells, grown under G418 selection
T1 sequence (O43614 1-444): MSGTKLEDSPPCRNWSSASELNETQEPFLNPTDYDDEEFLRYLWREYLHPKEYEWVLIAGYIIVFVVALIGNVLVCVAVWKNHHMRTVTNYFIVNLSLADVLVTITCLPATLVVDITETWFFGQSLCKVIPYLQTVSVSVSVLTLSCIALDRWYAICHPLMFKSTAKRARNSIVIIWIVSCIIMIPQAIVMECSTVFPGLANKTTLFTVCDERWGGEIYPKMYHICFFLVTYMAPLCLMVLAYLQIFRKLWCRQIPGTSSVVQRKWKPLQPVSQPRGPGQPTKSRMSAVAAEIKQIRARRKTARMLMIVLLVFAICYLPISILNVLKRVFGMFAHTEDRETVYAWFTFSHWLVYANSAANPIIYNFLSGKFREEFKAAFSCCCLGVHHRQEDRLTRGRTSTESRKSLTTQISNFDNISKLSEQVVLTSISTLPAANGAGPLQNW
Procedure: The utility of the compounds in accordance with the present invention as orexin receptor OX1R and/or OX2R antagonists may be readily determined without undue experimentation by methodology well known in the art, including the “FLIPR Ca^2+ Flux Assay” (Okumura et al., Biochem. Biophys. Res. Comm. 280:976-981, 2001). In a typical experiment the OX1 and OX2 receptor antagonistic activity of the compounds of the present invention was determined in accordance with the following experimental method. For intracellular calcium measurements, Chinese hamster ovary (CHO) cells expressing the rat orexin-1 receptor or the human orexin-2 receptor, are grown in Iscove's modified DMEM containing 2 mM L-glutamine, […], 1% hypoxanthine-thymidine supplement, 100 U/ml penicillin, 100 μg/ml streptomycin and 10% heat-inactivated fetal calf serum (FCS). The cells are seeded at 20,000 cells/well into Becton-Dickinson black 384-well clear bottom sterile plates coated with poly-D-lysine. All reagents were from GIBCO-Invitrogen Corp. The seeded plates are incubated overnight at 37° C. and 5% CO2. Ala-6,12 human orexin-A as the agonist is prepared as a 1 mM stock solution in 1% bovine serum albumin (BSA) and diluted in assay buffer (HBSS containing 20 mM HEPES, 0.1% BSA and 2.5 mM probenecid, pH7.4) for use in the assay at a final concentration of 70 pM. Test compounds are prepared as 10 mM stock solution in DMSO, then diluted in 384-well plates, first in DMSO, then assay buffer. On the day of the assay, cells are washed 3 times with 100 μl assay buffer and then incubated for 60 min (37° C., 5% CO2) in 60 μl assay buffer containing 1 μM Fluo-4AM ester, 0.02% pluronic acid, and 1% BSA. The dye loading solution is then aspirated and cells are washed 3 times with 100 μl assay buffer. 30 μl of that same buffer is left in each well. Within the Fluorescent Imaging Plate Reader (FLIPR, Molecular Devices), test compounds are added to the plate in a volume of 25 μl, incubated for 5 min and finally 25 μl of agonist is added. Fluorescence is measured for each well at 1 second intervals for 5 minutes and the height of each fluorescence peak is compared to the height of the fluorescence peak induced by 70 pM Ala-6,12 orexin-A with buffer in place of antagonist. For each antagonist, IC50 value (the concentration of compound needed to inhibit 50% of the agonist response) is determined. Alternatively, compound potency can be assessed by a radioligand binding assay (described in Bergman et. al. Bioorg. Med. Chem. Lett. 2008, 18, 1425-1430) in which the inhibition constant (Ki) is determined in membranes prepared from CHO cells expressing either the OX1 or OX2 receptor. The intrinsic orexin receptor antagonist activity of a compound which may be used in the present invention may be determined by these assays.
Chinese hamster ovary (CHO) cells expressing the human orexin-1 receptor (hOX1R) or the human orexin-2 receptor (hOX2R) were grown in Iscove's modified DMEM containing 2 mM L-glutamine, […], 1% hypoxanthine-thymidine supplement, 100 U/ml penicillin, 100 μg/ml streptomycin and 10% heat-inactivated fetal calf serum (FCS). The cells were seeded at 20,000 cells/well into Becton-Dickinson black 384-well clear bottom sterile plates coated with poly-D-lysine. All reagents were from GIBCO-Invitrogen Corp. The seeded plates were incubated overnight at 37° C. and 5% CO2. Ala-6,12 human orexin-A, used as the agonist, was prepared as a 1 mM stock solution in 1% bovine serum albumin (BSA) and diluted in assay buffer (HBSS containing 20 mM HEPES, 0.1% BSA and 2.5 mM probenecid, pH7.4) for use in the assay at a final concentration of 70 pM. Test compounds were prepared as 10 mM stock solution in DMSO, then diluted in 384-well plates, first in DMSO, then assay buffer. […]

[2] = molecular target: T2, human orexin-1 receptor (hOX1R) (Homo sapiens, UniProt O43613); experiment: FLIPR Ca2+ Flux Assay, CHO cells expressing hOX1R; format: cell-based; settings: agonist 70 pM Ala-6,12 orexin-A
T2 construct: expressed in transfected cells; host or cells: Chinese hamster ovary (CHO) cells, grown under G418 selection
T2 sequence (O43613 1-425): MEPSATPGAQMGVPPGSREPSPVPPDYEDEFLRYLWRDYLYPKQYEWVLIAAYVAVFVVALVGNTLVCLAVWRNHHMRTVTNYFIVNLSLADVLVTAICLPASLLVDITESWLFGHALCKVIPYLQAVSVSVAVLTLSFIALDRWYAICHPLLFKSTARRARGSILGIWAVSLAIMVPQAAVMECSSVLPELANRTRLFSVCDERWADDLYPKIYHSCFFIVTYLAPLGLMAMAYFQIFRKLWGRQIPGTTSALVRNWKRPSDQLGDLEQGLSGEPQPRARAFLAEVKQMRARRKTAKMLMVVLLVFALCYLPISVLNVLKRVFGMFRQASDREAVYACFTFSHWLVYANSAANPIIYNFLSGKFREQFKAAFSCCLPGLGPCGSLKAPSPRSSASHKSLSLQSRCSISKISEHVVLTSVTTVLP
Procedure: Chinese hamster ovary (CHO) cells expressing the human orexin-1 receptor (hOX1R) or the human orexin-2 receptor (hOX2R) were grown in Iscove's modified DMEM containing 2 mM L-glutamine, […], 1% hypoxanthine-thymidine supplement, 100 U/ml penicillin, 100 μg/ml streptomycin and 10% heat-inactivated fetal calf serum (FCS). The cells were seeded at 20,000 cells/well into Becton-Dickinson black 384-well clear bottom sterile plates coated with poly-D-lysine. All reagents were from GIBCO-Invitrogen Corp. The seeded plates were incubated overnight at 37° C. and 5% CO2. Ala-6,12 human orexin-A, used as the agonist, was prepared as a 1 mM stock solution in 1% bovine serum albumin (BSA) and diluted in assay buffer (HBSS containing 20 mM HEPES, 0.1% BSA and 2.5 mM probenecid, pH7.4) for use in the assay at a final concentration of 70 pM. Test compounds were prepared as 10 mM stock solution in DMSO, then diluted in 384-well plates, first in DMSO, then assay buffer.
On the day of the assay, cells were washed 3× with 100 μl assay buffer and then incubated for 60 minutes (37° C., 5% CO2) in 60 μl assay buffer containing 1 μM Fluo-4AM ester, 0.02% pluronic acid, and 1% BSA. The dye loading solution was then aspirated and cells were washed 3× with 100 μl assay buffer. 30 μl of that same buffer was left in each well. Within the Fluorescent Imaging Plate Reader (FLIPR, Molecular Devices), test compounds were added to the plate in a volume of 25 μl, incubated for 5 minutes, and then 25 μl of agonist was added. Fluorescence was measured for each well at 1 second intervals for 5 minutes, and the height of each fluorescence peak was compared to the height of the fluorescence peak induced by 70 pM of Ala-6,12 orexin-A with buffer in place of test compound.

| Structure (SMILES) | pIC50 [1] | pIC50 [2] |
| --- | --- | --- |
| C[C@@H]1CC[C@@H](Oc2ncccc2C(C)(C)O)CN1C(=O)c1cc(F)ccc1-c1ncccn1 [Example 22, 2-[2-({(3R,6R)-1-[(5-fluoro-2-pyrimidin-2-yl-phenyl)carbonyl]-6-methylpiperidin-3-yl}oxy)pyridin-3-yl]propan-2-ol] | 7.09 | 6.85 |
| Cc1ccc(C(=O)N2C[C@H](Oc3ncccc3C(C)(C)O)CC[C@H]2C)c(C2CC2)c1 [Example 16, 2-[2-({(3R,6R)-1-[(2-cyclopropyl-4-methylphenyl)carbonyl]-6-methylpiperidin-3-yl}oxy)pyridin-3-yl]propan-2-ol] | 6.87 | 6.46 |
| COc1ccc(C(=O)N2C[C@H](Oc3ncccc3C(C)(C)O)CC[C@H]2C)c(-c2ccccc2)n1 [Example 10, 2-[2-({(3R,6R)-1-[(6-methoxy-2-phenylpyridin-3-yl)carbonyl]-6-methylpiperidin-3-yl}oxy)pyridin-3-yl]propan-2-ol] | 6.80 | 6.36 |
| C[C@@H]1CC[C@@H](Oc2ncccc2C(C)(C)O)CN1C(=O)c1sccc1-c1ncccn1 [Example 24, 2-[2-({(3R,6R)-6-methyl-1-[(3-pyrimidin-2-yl-thiophen-2-yl)carbonyl]piperidin-3-yl}oxy)pyridin-3-yl] propan-2-ol] | 7.46 | 7.11 |
| C[C@@H]1CC[C@@H](Oc2ncccc2C(C)(C)O)CN1C(=O)c1cc(F)ccc1-n1nccn1 [Example 5, 2-(2-{[(3R,6R)-1-{[5-fluoro-2-(2H-1,2,3-triazol-2-yl)phenyl]carbonyl}-6-methylpiperidin-3-yl]oxy}pyridin-3-yl)propan-2-ol] | 7.47 | 6.92 |
| C[C@@H]1CC[C@@H](Oc2ncccc2C(C)(C)O)CN1C(=O)c1ccccc1C1CC1 [Example 13, 2-[2-({(3R,6R)-1-[(2-cyclopropylphenyl)carbonyl]-6-methylpiperidin-3-yl}oxy)pyridin-3-yl]propan-2-ol] | 7.47 | 7.03 |
| C[C@@H]1CC[C@@H](Oc2ncccc2C(C)(C)O)CN1C(=O)c1ccc(F)cc1-n1nccn1 [Example 4, 2-(2-{[(3R,6R)-1-{[4-fluoro-2-(2H-1,2,3-triazol-2-yl)phenyl]carbonyl}-6-methylpiperidin-3-yl]oxy}pyridin-3-yl)propan-2-ol] | 7.17 | 6.37 |
| C[C@@H]1CC[C@@H](Oc2ncccc2C(C)(C)O)CN1C(=O)c1ccccc1N1CCCC1 [Example 12, 2-[2-({(3R,6R)-6-methyl-1-[(2-pyrrolidin-1-ylphenyl)carbonyl]piperidin-3-yl}oxy)pyridin-3-yl]propan-2-ol] | 6.98 | 6.58 |
| C[C@@H]1CC[C@@H](Oc2ncccc2CO)CN1C(=O)c1ccccc1-n1ncnn1 [Example 50, (2-{[(3R,6R)-6-methyl-1-{[2-(2H-tetrazol-2-yl)phenyl]carbonyl}piperidin-3-yl]oxy}pyridin-3-yl)methanol] | 6.54 | 5.73 |

Compounds with a higher pIC50 [1], results first:

| pIC50 [1] | pIC50 [2] | Structure (SMILES) |
| --- | --- | --- |
| 7.77 | 6.97 | C[C@@H]1CC[C@@H](Oc2nccc(C3CC3)c2CO)CN1C(=O)c1ccccc1-n1nccn1 [Example 42, (4-cyclopropyl-2-{[(3R,6R)-6-methyl-1-{[2-(2H-1,2,3-triazol-2-yl)phenyl]carbonyl}piperidin-3-yl]oxy}pyridin-3-yl) methanol] |
| 7.57 | 6.64 | CC[C@H](O)c1cccnc1O[C@@H]1CC[C@@H](C)N(C(=O)c2ccccc2-n2nccn2)C1 [Example 32, (1S)-1-(2-{[(3R,6R)-6-methyl-1-{[2-(2H-1,2,3-triazol-2-yl)phenyl]carbonyl}piperidin-3-yl]oxy}pyridin-3-yl)propan-1-ol] |
| 7.60 | 6.40 | COc1ccnc(O[C@@H]2CC[C@@H](C)N(C(=O)c3ccccc3-n3nccn3)C2)c1C(C)(C)O [Example 27, 2-(4-Methoxy-2-{[(3R,6R)-6-methyl-1-{[2-(2H-1,2,3-triazol-2-yl)phenyl]carbonyl}piperidin-3-yl]oxy}pyridin-3-yl)propan-2-ol] |
| 7.68 | 6.81 | C[C@@H]1CC[C@@H](Oc2ncccc2C(C)(C)O)CN1C(=O)c1ccccc1-n1ncnn1 [Example 48, 2-(2-{[(3R,6R)-6-Methyl-1-{[2-(2H-tetrazol-2-yl)phenyl]carbonyl}piperidin-3-yl]oxy}pyridin-3-yl)propan-2-ol] |
| 7.57 | 7.19 | CC(O)c1cccnc1O[C@@H]1CC[C@@H](C)N(C(=O)c2ccccc2-n2nccn2)C1 (stereo partly drawn) [Example 31, 1-(2-{[(3R,6R)-6-methyl-1-{[2-(2H-1,2,3-triazol-2-yl)phenyl]carbonyl}piperidin-3-yl]oxy}pyridin-3-yl)ethanol] |
